The text below walks through data of patent US5945413A, “Aspartyl protease inhibitors” (Vertex Pharmaceuticals Incorporated, priority 1996, dated 1999).

In the first assay the target is HIV-1 protease (Human immunodeficiency virus type 1 group M subtype B, UniProt P04585). The assay can be described thus: inhibition constants against HIV-1 protease (method of Pennington et al.). The format is biochemical.
Conditions: not given
An excerpt: We have measured the inhibition constants of each compound against HIV-1 protease using the method described essentially by M. W. Pennington et al., Peptides 1990, Gimet, E. and D. Andrew, Eds., Escom, Leiden, Netherlands (1990); and the method described essentially by Partaledis et al., J. Virol., 69, pp. 5228-35 (1995).
Using the method described by Pennington et al. (supra), we obtained inhibition constants for the following compounds of this invention: […]
`COc1ccc(S(=O)(=O)N(CC(O)CN2C(=O)C(CC3COC(=O)O3)C[C@@H]2Cc2ccccc2)CC2CCCC2)cc1` (stereo partly shown) [Compound 26] returned a Ki of 58 nM.

`C=CCN1C[C@H](Cc2ccccc2)N(C[C@H](O)CN(CC2CCCC2)S(=O)(=O)c2ccc(OC)cc2)C1=O` [Compound 1]: the Ki worked out at 160 nM.

The compound `COc1ccc(S(=O)(=O)N(CC(O)CN2C(=O)C(CC(O)CO)C[C@@H]2Cc2ccccc2)CC2CCCC2)cc1` (stereo partly shown) [Compound 23] displayed a Ki of 70 nM.

Compound `COc1ccc(S(=O)(=O)N(CC(O)CN2C(=O)CNC[C@@H]2Cc2ccccc2)CC2CCCC2)cc1` (stereo partly shown) [Compound 27] gave a Ki of 3000 nM.

With `COc1ccc(S(=O)(=O)N(CC(O)CN2[C@@H](Cc3ccccc3)CCS2(=O)=O)CC2CCCC2)cc1` (stereo partly shown) [Compound 11], the Ki is > 10000 nM.

For `COC(=O)C1(C)NC[C@H](Cc2ccccc2)N(CC(O)CN(CC2CCCC2)S(=O)(=O)c2ccc(OC)cc2)C1=O` (stereo partly shown) [Compound 34], the Ki worked out at 950 nM.

With `COc1ccc(S(=O)(=O)N(CC(O)CN2C(=O)C(C)(C)C[C@@H]2Cc2ccccc2)CC2CCCC2)cc1` (stereo partly shown) [Compound 17], the affinity corresponds to a Ki of 115 nM.

As for `COc1ccc(S(=O)(=O)N(CC(O)CN2C(=O)[C@H](C)NC[C@@H]2Cc2ccccc2)CC2CCCC2)cc1` (stereo partly shown) [Compound 30], the Ki was > 15000 nM.

As to `CC(C)CN1CC(Cc2ccccc2)N(CC(O)CN(CC2CCCC2)S(=O)(=O)c2cccc(N)c2)C1=O` (stereo not shown) [Compound 12], the Ki was > 10000 nM.

For `COc1ccc(S(=O)(=O)N(CC(O)CN2C(=O)C(N)C[C@@H]2Cc2ccccc2)CC2CCCC2)cc1` (stereo partly shown) [Compound 21], the Ki is > 20000 nM.

Compound `COc1ccc(S(=O)(=O)N(CC(O)CN2C(=O)C(CC3COCO3)C[C@@H]2Cc2ccccc2)CC2CCCC2)cc1` (stereo partly shown) [Compound 24] gave a Ki of 350 nM.

Turning to `COc1ccc(S(=O)(=O)N(CC(O)CN2C(=O)N(Cc3ccccc3)C[C@@H]2Cc2ccccc2)CC2CCCC2)cc1` (stereo partly shown) [Compound 14], the Ki came to 16 nM.

As to `COc1ccc(S(=O)(=O)N(CC(O)CN2C(=O)N(C)C[C@@H]2Cc2ccccc2)CC2CCCC2)cc1` (stereo partly shown) [Compound 13], the Ki was 225 nM.

`COc1ccc(S(=O)(=O)N(CC2CCCC2)C[C@@H](O)CN2C(=O)C(Cc3ccccc3)C[C@@H]2Cc2ccccc2)cc1` (stereo partly shown) [Compound 20]: the Ki came to 1.5 nM.

In turn, `CCC1C[C@H](Cc2ccccc2)N(CC(O)CN(CC2CCCC2)S(=O)(=O)c2ccc(OC)cc2)C1=O` (stereo partly shown) [Compound 18] gave a Ki of 15 nM.

As to `C=CCC1C[C@H](Cc2ccccc2)N(C[C@H](O)CN(CC2CCCC2)S(=O)(=O)c2ccc(OC)cc2)C1=O` (stereo partly shown) [Compound 7], the Ki was 9 nM. Compared with the last compound, the Ki is about 1.7-fold lower.

With `COc1ccc(S(=O)(=O)N(CC(O)CN2[C@@H](Cc3ccccc3)CN(C)S2(=O)=O)CC2CCCC2)cc1` (stereo partly shown) [Compound 10], the Ki is > 10000 nM.

Compound `COc1ccc(S(=O)(=O)N(CC(O)CN2C(=O)CC(O)[C@@H]2Cc2ccccc2)CC2CCCC2)cc1` (stereo partly shown) [Compound 19] displayed a Ki of 3000 nM.

Take `COc1ccc(S(=O)(=O)N(CC(O)CN2C(=O)C(CC(COC(C)=O)OC(C)=O)C[C@@H]2Cc2ccccc2)CC2CCCC2)cc1` (stereo partly shown) [Compound 25]: the Ki came to 83 nM.

As for `COc1ccc(S(=O)(=O)N(CC(O)CN2C(=O)C(NC(C)=O)C[C@@H]2Cc2ccccc2)CC2CCCC2)cc1` (stereo partly shown) [Compound 22], the affinity, expressed as Ki, was 600 nM.

In turn, `COc1ccc(S(=O)(=O)N(CC(O)CN2C(=O)CC[C@@H]2Cc2ccccc2)CC2CCCC2)cc1` (single isomer, unassigned) [Compound 15] showed a Ki of 550 nM.

Turning to `COc1ccc(S(=O)(=O)N(CC2CCCC2)C[C@@H](O)CN2C(=O)C(C)C[C@@H]2Cc2ccccc2)cc1` (stereo partly shown) [Compound 16], affinity was put at a Ki of 56 nM.

Compound `COc1ccc(S(=O)(=O)N(CC2CCCC2)C[C@@H](O)CN2C(=O)C3(CCCCC3)OC[C@@H]2Cc2ccccc2)cc1` [Compound 47] gave an inhibitory constant (Ki) of 20 nM.

In the case of `COc1ccc(S(=O)(=O)N(CC(O)CN2C(=O)COC[C@@H]2Cc2ccccc2)CC2CCCC2)cc1` (stereo partly shown) [Compound 28], the Ki came to 1400 nM.

`COc1ccc(S(=O)(=O)N(CC(O)CN2C(=O)C(C)(C)NC[C@@H]2Cc2ccccc2)CC2CCCC2)cc1` (stereo partly shown) [Compound 31] registered a Ki of 390 nM.

Compound `COC(=O)C1NC[C@H](Cc2ccccc2)N(CC(O)CN(CC2CCCC2)S(=O)(=O)c2ccc(OC)cc2)C1=O` (stereo partly shown) [Compound 33] showed a Ki of 1100 nM.

In turn, `COc1ccc(S(=O)(=O)N(CC(O)CN2C(=O)C3(CCCC3)NC[C@@H]2Cc2ccccc2)CC2CCCC2)cc1` (stereo partly shown) [Compound 32] displayed a Ki of 160 nM.

Still in this assay, the particulars now being: Inhibition constant measured at pH 6.0.
On to `CC(C)(C)NC(=O)C1CSCN1C(=O)C(=O)CN1C(=O)C(C)(C)NC[C@@H]1Cc1ccccc1` (stereo partly shown) [Compound 105], for which the Ki is > 10000 nM.

With `CC(C)(C)NC(=O)C1C[C@@H]2CCCC[C@@H]2CN1CC(O)CN1C(=O)N(Cc2ccccc2)C[C@@H]1Cc1ccccc1` (stereo partly shown) [Compound 76], the Ki is 250 nM.

For `CC(C)(C)NC(=O)C1C[C@@H]2CCCC[C@@H]2CN1CC(O)CN1C(=O)C(C)(C)NC[C@@H]1Cc1ccccc1` (stereo partly shown) [Compound 5], the inhibitory constant (Ki) was > 10000 nM.

With `CC(C)(C)NC(=O)C1CSCN1C(=O)C(O)CN1C(=O)C(Cc2ccccc2)CC1Cc1ccccc1` (stereo not shown) [Compound 102], the Ki came out at 1200 nM.

With `CCCC1CC(Cc2ccccc2)N(CC(=O)C(=O)N2CSCC2C(=O)NC(C)(C)C)C1=O` (stereo not shown) [Compound 112], the Ki came out at 8600 nM.

In turn, `CC(C)(C)NC(=O)C1C[C@@H]2CCCC[C@@H]2CN1CC(O)CN1[C@@H](Cc2ccccc2)CN(Cc2ccccc2)S1(=O)=O` (stereo partly shown) [Compound 77] showed a Ki of 560 nM.

In turn, `CC(C)(C)NC(=O)C1CSCN1C(=O)C(=O)CN1C(=O)C(Cc2ccccc2)CC1Cc1ccccc1` (stereo not shown) [Compound 109] showed a Ki of 250 nM.

`C=CCC1C[C@H](Cc2ccccc2)N(CC(O)CN2CCN(Cc3cccnc3)CC2C(=O)NC(C)(C)C)C1=O` (stereo partly shown) [Compound 9] returned a Ki of 90 nM.

The compound `C=CCC1C[C@H](Cc2ccccc2)N(CC(O)CN2C[C@H]3CCCC[C@H]3CC2C(=O)NC(C)(C)C)C1=O` (stereo partly shown) [Compound 8] came in with a Ki of 5 nM.

Turning to `C=CCN1C[C@H](Cc2ccccc2)N(CC(O)CN2CCN(Cc3cccnc3)CC2C(=O)NC(C)(C)C)C1=O` (stereo partly shown) [Compound 3], the Ki was determined as 1800 nM. Compared with the last compound, the Ki is about 360-fold higher.

`C=CCN1C[C@H](Cc2ccccc2)N(CC(O)CN2C[C@H]3CCCC[C@H]3CC2C(=O)NC(C)(C)C)C1=O` (stereo partly shown) [Compound 2] displayed a Ki of 180 nM.

`C=CCN1CC(Cc2ccccc2)N(CC(O)CC(Cc2ccccc2)C(=O)NC2c3ccccc3CC2O)C1=O` (stereo not shown) [Compound 78] had a Ki of 10 nM. Compared with the last compound, the Ki is about 18-fold lower.

On to `CC(C)(C)NC(=O)C1CSCN1C(=O)C(=O)CN1C(=O)CCC1Cc1ccccc1` (stereo not shown) [Compound 111], for which the Ki was > 10000 nM.

Broadly, the Ki is the dissociation constant of the complex between target and ligand, obtained from inhibition or displacement.
